Measurements from patent US20240408169A1 (priority 2023, published 2024).
Read-outs that look alike come from different tables or passages of the source. *1 amine or outer side, *2 acyl side, *3 side chain or, on linkers, in order; H or OH if unused. Where a SMILES comes first, the peptide text is derived from it. Bridges are numbered along the chain shown (N, C = ends). [ ]: non-standard residue; d: D form. The star is where a group is joined. X53 = CN1[C@@H]2CC[C@H]1CN(c1ccc(-c3ccc(Cl)cc3C[C@@H](C(=O)[*:2])N(C)[*:1])cc1)C2; NMePhe(2-(4-MorPh),5-Cl) = CN[C@@H](Cc1cc(Cl)ccc1-c1ccc(N2CCOCC2)cc1)C(=O)O; X78 = CN1CCN(C2(c3ccc(-c4ccc(Cl)cc4C[C@@H](C(=O)[*:2])N(C)[*:1])cc3)CC2)CC1; X3 = COCCOCCN1CCN(c2ccc(-c3ccc(Cl)cc3C[C@@H](C(=O)[*:2])N(C)[*:1])cc2)CC1; X43 = CC(C)N1CCN(c2ccc(-c3ccc(Cl)cc3C[C@@H](C(=O)[*:2])N(C)[*:1])cc2)CC1; X62 = CN1CCC[C@H](c2ccc(-c3ccc(Cl)cc3C[C@@H](C(=O)[*:2])N(C)[*:1])cc2)C1; X42 = CN([C@@H](Cc1cc(Cl)ccc1-c1cnn(S(=O)(=O)C2CC2)c1)C(=O)[*:2])[*:1]; X36 = Cc1cc(-c2ccc(Cl)cc2C[C@@H](C(=O)[*:2])N(C)[*:1])ccc1N1CCN(C)CC1; NMeAla(5-Cl-2-cPrO-3-pyridyl) = CN[C@@H](Cc1cc(Cl)cnc1OC1CC1)C(=O)O; X86 = CN([C@@H](Cc1cc(Cl)ccc1-c1cnn(C2CCOCC2)c1)C(=O)[*:2])[*:1]; X84 = CC(=O)N1CCC(c2ccc(Cl)cc2C[C@@H](C(=O)[*:2])N(C)[*:1])CC1; X83 = CN([C@@H](Cc1cc(Cl)ccc1-c1cnn2c1COCC2)C(=O)[*:2])[*:1]; NMehhhLys(Me) = CN([C@@H](CCCCCCCN(C)[*:3])C(=O)[*:2])[*:1]; Oxane2carbonyl(2R-CF3) = O=C([C@@]1(C(F)(F)F)CCCCO1)*; Cyclobutanecarbonyl(1-CF3) = O=C(C1(C(F)(F)F)CCC1)*; X94 = CN([C@@H](Cc1cc(F)ccc1C1CC1)C(=O)[*:2])[*:1]; cBuCO(3,3-F2-1-CF3) = O=C(C1(C(F)(F)F)CC(F)(F)C1)*; Pro(trans-4-F) = O=C(O)[C@@H]1C[C@@H](F)CN1; Gly(cPr) = N[C@H](C(=O)O)C1CC1; X65 = CC1(C(=O)*)CC(F)(F)C1; X20 = O=C(C1(Cl)CC1)*

Assays:
CyclinA2/CDK2 = biological target: T1, CyclinA2/CDK2 (Homo sapiens, UniProt P20248); experiment: Fluorescence Polarization (FP) competitive binding assay, Cyclin A2/Cdk2;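 further: plates equilibrated two hours at room temperature before polarization reading, IC50 fitted from eight-concentration compound titration curves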
T1 construct: purchased CRELUX Protein Services

CyclinB1/CDK1 = biological target: T2, CyclinB1/CDK1 (Homo sapiens, UniProt P14635); experiment: Fluorescence Polarization (FP) competitive binding assay, Cyclin B1/Cdk1;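 further: fluorescence polarization read after equilibration at room temperature, with IC50 taken from serially diluted dose-response curves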
T2 construct: purchased Eurofins, discovery 14-450

CyclinE1/CDK2 = biological target: T3, CyclinE1/CDK2 (Homo sapiens, UniProt P24864); experiment: Fluorescence Polarization (FP) competitive binding assay, Cyclin E1/Cdk2;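 further: readings taken after two-hour equilibration at room temperature in HEPES buffer with NaCl, DTT, NP-40 and BSA, IC50 fitted from eight-concentration serial dilution series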
T3 construct: purchased Eurofins, discovery 14-475

WI-38 cells = experiment: MTT proliferation assay, WI-38; format: cell-based; conditions: 3 days compound exposure, 1:3 serial dilution starting at 10 μM;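 further: Eight- or ten-point dilution series, with exposure length chosen to span about three to four cell doublings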
NCI-H1048 cells = experiment: MTT proliferation assay, NCI-H1048; format: cell-based; conditions: 5 days compound exposure, 1:3 serial dilution starting at 10 μM;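 further: Dose-response in 96-well plates over 8 or 10 concentration points, with exposure spanning 3-4 cell doublings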
OVCAR3 cells = experiment: MTT proliferation assay, OVCAR3; format: cell-based; conditions: 5 days compound exposure, 1:3 serial dilution starting at 10 μM;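 further: compound given as an 8- or 10-point series, one day after plating, with exposure covering roughly 3-4 cell doublings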
[1] = 8 nM Cyclin A2/Cdk2, 2 nM FAM probe, average of 2-3 independent experiments, read-out: Cyclin A FP IC50
[2] = 10 nM Cyclin B1/Cdk1, 2 nM FAM probe; average of 2-3 independent experiments; read-out: Cyclin B FP IC50
[3] = 10 nM Cyclin E1/Cdk2, 2 nM FAM probe, average of 2-3 independent experiments, read-out: Cyclin E FP IC50

Row | SMILES | IC50 (CyclinA2/CDK2; [1]) [nM] | IC50 (CyclinB1/CDK1; [2]) [nM] | IC50 (CyclinE1/CDK2; [3]) [nM] | GI50 (WI-38 cells) [µM] | GI50 (NCI-H1048 cells) [nM] | GI50 (OVCAR3 cells) [nM] | IC50 (CyclinA2/CDK2) [nM] | IC50 (CyclinB1/CDK1; read-out: Cyclin B FP IC50; 10 nM Cyclin B1/Cdk1, 2 nM FAM probe; average of 2-3 independent experiments) [nM] | IC50 (CyclinE1/CDK2) [nM]
1 | CC(C)C[C@@H]1NC(=O)[C@@H](N(C)C(=O)[C@@H](NC(=O)[C@@H]2C[C@@H](F)CN2C(=O)C2(C(F)(F)F)CC(F)(F)C2)C2CC2)CCCCCCCN(C)C(=O)[C@H](Cc2cc(F)ccc2C2CC2)N(C)C1=O [Example 121] ({cBuCO(3,3-F2-1-CF3)}-[Pro(trans-4-F)][Gly(cPr)][NMehhhLys(Me)]L[X94]; lactam 3-C) | 50 | 20 | 130 | 7.61 | 40 | 70 |  |  | 
2 | CC(C)C[C@@H]1NC(=O)C(N(C)C(=O)[C@@H](NC(=O)[C@@H]2C[C@@H](F)CN2C(=O)C2(C(F)(F)F)CC(F)(F)C2)C2CC2)C/C=C\CCCCN(C)C(=O)[C@H](Cc2cc(Cl)ccc2-c2ccc(N3CCN(C)CC3)cc2)N(C)C1=O (stereo partly drawn) [Example 397] | 20 | 20 | 260 | 3.56 | 10 | 10 |  |  | 
3 | CC(C)C[C@@H]1NC(=O)[C@@H](N(C)C(=O)[C@@H](NC(=O)[C@@H]2C[C@@H](F)CN2C(=O)C2(C(F)(F)F)CC(F)(F)C2)C2CC2)CCCCCCCN(C)C(=O)[C@H](Cc2cc(Cl)ccc2-c2cnn(C3CCOCC3)c2)N(C)C1=O [Example 114] ({cBuCO(3,3-F2-1-CF3)}-[Pro(trans-4-F)][Gly(cPr)][NMehhhLys(Me)]L[X86]; lactam 3-C) | 20 | 20 | 400 | 7.19 | 10 | 10 |  |  | 
4 | CC(C)C[C@@H]1NC(=O)[C@@H](N(C)C(=O)[C@@H](NC(=O)[C@@H]2C[C@@H](F)CN2C(=O)C2(C(F)(F)F)CC(F)(F)C2)C2CC2)CCCCCCCN(C)C(=O)[C@H](Cc2cc(Cl)ccc2-c2ccc(C3(N4CCN(C)CC4)CC3)cc2)N(C)C1=O [Example 381] ({cBuCO(3,3-F2-1-CF3)}-[Pro(trans-4-F)][Gly(cPr)][NMehhhLys(Me)]L[X78]; lactam 3-C) | 20 | 20 | 1310 | 2.3 | 20 | 40 |  |  | 
5 | CC(=O)N1CCC(c2ccc(Cl)cc2C[C@H]2C(=O)N(C)CCCCCCC[C@H](N(C)C(=O)[C@@H](NC(=O)[C@@H]3C[C@@H](F)CN3C(=O)C3(C(F)(F)F)CC(F)(F)C3)C3CC3)C(=O)N[C@@H](CC(C)C)C(=O)N2C)CC1 [Example 52] ({cBuCO(3,3-F2-1-CF3)}-[Pro(trans-4-F)][Gly(cPr)][NMehhhLys(Me)]L[X84]; lactam 3-C) | 40 | 20 | 1130 | 13.1 | 10 | 10 |  |  | 
6 | CC(C)C[C@@H]1NC(=O)[C@@H](N(C)C(=O)[C@@H](NC(=O)[C@@H]2C[C@@H](F)CN2C(=O)C2(C(F)(F)F)CC(F)(F)C2)C2CC2)CC=CCCCCNC(=O)[C@H](Cc2cc(Cl)ccc2C2=CCOCC2)N(C)C1=O [Example 17] | 90 | 20 | 4110 | 17.9 | 240 | 560 |  |  | 
7 | CC(C)C[C@@H]1NC(=O)[C@@H](N(C)C(=O)[C@@H](NC(=O)[C@@H]2C[C@@H](F)CN2C(=O)C2(C)CC(F)(F)C2)C2CC2)CCCCCCCN(C)C(=O)[C@H](Cc2cc(Cl)ccc2-c2ccc(N3CCOCC3)cc2)N(C)C1=O [Example 365] (X65-[Pro(trans-4-F)][Gly(cPr)][NMehhhLys(Me)]L[NMePhe(2-(4-MorPh),5-Cl)]; lactam 3-C) | 20 | 20 | 1170 | 3.18 | 10 | 10 |  |  | 
8 | COCCOCCN1CCN(c2ccc(-c3ccc(Cl)cc3C[C@H]3C(=O)N(C)CCCCCCC[C@H](N(C)C(=O)[C@@H](NC(=O)[C@@H]4C[C@@H](F)CN4C(=O)C4(C(F)(F)F)CC(F)(F)C4)C4CC4)C(=O)N[C@@H](CC(C)C)C(=O)N3C)cc2)CC1 [Example 356] ({cBuCO(3,3-F2-1-CF3)}-[Pro(trans-4-F)][Gly(cPr)][NMehhhLys(Me)]L[X3]; lactam 3-C) | 20 | 20 | 340 | 3.43 | 10 | 10 |  |  | 
9 | CC(C)C[C@@H]1NC(=O)[C@@H](N(C)C(=O)[C@@H](NC(=O)[C@@H]2C[C@@H](F)CN2C(=O)C2(C(F)(F)F)CCC2)C2CC2)CC=CCCCCN(C)C(=O)[C@H](Cc2cc(Cl)ccc2-c2cncnc2)N(C)C1=O [Example 35] | 120 | 20 | 1690 | 12.4 | 170 | 350 |  |  | 
10 | CC(C)C[C@@H]1NC(=O)[C@@H](N(C)C(=O)[C@@H](NC(=O)[C@@H]2C[C@@H](F)CN2C(=O)[C@@]2(C(F)(F)F)CCCCO2)C2CC2)CCCCCCCN(C)C(=O)[C@H](Cc2cc(Cl)ccc2-c2cnn(S(=O)(=O)C3CC3)c2)N(C)C1=O [Example 283] ({Oxane2carbonyl(2R-CF3)}-[Pro(trans-4-F)][Gly(cPr)][NMehhhLys(Me)]L[X42]; lactam 3-C) | 30 | 20 | 180 | 14.2 | 10 | 10 |  |  | 
11 | CC(C)C[C@@H]1NC(=O)[C@@H](N(C)C(=O)[C@@H](NC(=O)[C@@H]2C[C@@H](F)CN2C(=O)C2(C(F)(F)F)CC(F)(F)C2)C2CC2)CCCCCCCN(C)C(=O)[C@H](Cc2cc(Cl)ccc2-c2cnn3c2COCC3)N(C)C1=O [Example 233] ({cBuCO(3,3-F2-1-CF3)}-[Pro(trans-4-F)][Gly(cPr)][NMehhhLys(Me)]L[X83]; lactam 3-C) |  |  |  | 15.2 | 30 | 30 | 50 | 20 | 1600
12 | CC(C)C[C@@H]1NC(=O)[C@@H](N(C)C(=O)[C@@H](NC(=O)[C@@H]2C[C@@H](F)CN2C(=O)C2(Cl)CC2)C2CC2)CCCCCCCN(C)C(=O)[C@H](Cc2cc(Cl)ccc2-c2ccc(N3CCOCC3)cc2)N(C)C1=O [Example 398] (X20-[Pro(trans-4-F)][Gly(cPr)][NMehhhLys(Me)]L[NMePhe(2-(4-MorPh),5-Cl)]; lactam 3-C) | 20 | 20 | 590 | 3.64 | 140 | 190 |  |  | 
13 | CC(C)C[C@@H]1NC(=O)[C@@H](N(C)C(=O)[C@@H](NC(=O)[C@@H]2C[C@@H](F)CN2C(=O)C2(C(F)(F)F)CCC2)C2CC2)CCCCCCCN(C)C(=O)[C@H](Cc2cc(Cl)cnc2OC2CC2)N(C)C1=O [Example 109] ({Cyclobutanecarbonyl(1-CF3)}-[Pro(trans-4-F)][Gly(cPr)][NMehhhLys(Me)]L[NMeAla(5-Cl-2-cPrO-3-pyridyl)]; lactam 3-C) | 40 | 20 | 170 | 9.52 | 20 | 20 |  |  | 
14 | CC(C)C[C@@H]1NC(=O)[C@@H](N(C)C(=O)[C@@H](NC(=O)[C@@H]2C[C@@H](F)CN2C(=O)C2(C(F)(F)F)CC(F)(F)C2)C2CC2)CCCCCCCN(C)C(=O)[C@H](Cc2cc(Cl)ccc2-c2ccc([C@H]3CCCN(C)C3)cc2)N(C)C1=O [Example 412] ({cBuCO(3,3-F2-1-CF3)}-[Pro(trans-4-F)][Gly(cPr)][NMehhhLys(Me)]L[X62]; lactam 3-C) | 20 | 20 | 1390 | 1.06 | 10 | 10 |  |  | 
15 | Cc1cc(-c2ccc(Cl)cc2C[C@H]2C(=O)N(C)CCCCCCC[C@H](N(C)C(=O)[C@@H](NC(=O)[C@@H]3C[C@@H](F)CN3C(=O)C3(C(F)(F)F)CC(F)(F)C3)C3CC3)C(=O)N[C@@H](CC(C)C)C(=O)N2C)ccc1N1CCN(C)CC1 [Example 374] ({cBuCO(3,3-F2-1-CF3)}-[Pro(trans-4-F)][Gly(cPr)][NMehhhLys(Me)]L[X36]; lactam 3-C) | 20 | 20 | 870 | 2.22 | 10 | 10 |  |  | 
16 | CC(C)C[C@@H]1NC(=O)[C@@H](N(C)C(=O)[C@@H](NC(=O)[C@@H]2C[C@@H](F)CN2C(=O)C2(C(F)(F)F)CC(F)(F)C2)C2CC2)CCCCCCCN(C)C(=O)[C@H](Cc2cc(Cl)ccc2-c2ccc(N3CCN(C(C)C)CC3)cc2)N(C)C1=O [Example 347] ({cBuCO(3,3-F2-1-CF3)}-[Pro(trans-4-F)][Gly(cPr)][NMehhhLys(Me)]L[X43]; lactam 3-C) | 20 | 20 | 650 | 1.81 | 10 | 10 |  |  | 
17 | CC(C)C[C@@H]1NC(=O)[C@@H](N(C)C(=O)[C@@H](NC(=O)[C@@H]2C[C@@H](F)CN2C(=O)C2(C(F)(F)F)CC(F)(F)C2)C2CC2)CCCCCCCN(C)C(=O)[C@H](Cc2cc(Cl)ccc2-c2ccc(N3C[C@H]4CC[C@@H](C3)N4C)cc2)N(C)C1=O [Example 362] ({cBuCO(3,3-F2-1-CF3)}-[Pro(trans-4-F)][Gly(cPr)][NMehhhLys(Me)]L[X53]; lactam 3-C) | 20 | 20 | 600 | 1.28 | 10 | 10 |  |  | 
